The text below walks through data of patent publication US10829520B2, “Beta-hairpin peptidomimetics” (POLYPHOR AG, priority 2015, dated 2020).

SMILES strings stand for the structures. Where a SMILES comes first, the peptide text is derived from it. Bridges are numbered along the chain shown (N, C = ends). [ ]: non-standard residue; d: D form. Tle = CC(C)(C)[C@H](N)C(=O)O; dDab = NCC[C@@H](N)C(=O)O; Orn = NCCC[C@H](N)C(=O)O; Dab = NCC[C@H](N)C(=O)O; Dap = NC[C@H](N)C(=O)O

Common to all, as to assay type: cell-based
Series [1] has as its system Escherichia coli ATCC 25922. Conditions: ATCC 25922. In short, it runs like this: (§1)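 MIC in μg/mL read as absence of visible growth after 18-20 h incubation at 35° C. Bacteria at about 10^6 CFU/mL in MH-II (cation-adjusted) broth plus 0.002% P-80 were exposed to two-fold peptide dilutions per standard CLSI microdilution.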
For series [2], the system named is Acinetobacter baumannii DSM 30008. The note with it: DSM 30008. In short, it runs like this: as §1
For a further series, the system named is Escherichia coli 926415. Conditions: 926415.
For series [3], the system named is Pseudomonas aeruginosa ATCC 27853. The note with it: ATCC 27853. In short, it runs like this:
as §1

Series [4] concerns Klebsiella pneumoniae 968733. The note with it: 968733.
In series [5] the test system is Klebsiella pneumoniae SSI #3010. Conditions: SSI #3010. Summed up: as §1
For series [6], the system named is Acinetobacter baumannii 872842. The note with it: 872842.
For series [7], the system named is human red blood cells (hRBC). Briefly: Hemolysis of human red blood cells. Conditions: red cells of human, 1 h, 100 μg/mL. In short, it runs like this: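 Percent hemolysis = OD540 of peptide-treated supernatant relative to the 2.5% Triton X-100 (100%) control, PBS containing 0.001% acetic acid defining 0%. Peptides tested at 100 μg/mL against 20% (v/v) washed human RBC, 1 h, 37 °C, 300 rpm.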

On to `CC(C)C[C@@H]1NC(=O)[C@@H](CC(C)C)NC(=O)[C@H](CCN)NC(=O)[C@@H](NC(=O)[C@H](CCN)NC(=O)[C@@H](CCN)NC(=O)[C@@H](NC(=O)[C@H](CCCN)NC(=O)[C@@H]2CSSC[C@H](NC(=O)[C@@H](N)Cc3c[nH]c4ccccc34)C(=O)N[C@@H](C(C)C)C(=O)NCC(=O)N[C@@H](CO)C(=O)N3CCC[C@@H]3C(=O)N3CCC[C@H]3C(=O)N[C@@H](C(C)C)C(=O)N[C@@H](CN)C(=O)N[C@@H](Cc3ccc(O)cc3)C(=O)N2)[C@@H](C)O)CCNC(=O)[C@H]([C@@H](C)O)NC(=O)[C@H](CCN)NC(=O)[C@H](CCN)NC1=O` [Ex. 136] (H-WCVGS[dP]PV[Dap]YC[Orn]T[dDab][Dab][Dab][Dab][dL]L[Dab][Dab]T; disulfide 2-11; lactam 16-C), for which, in series [1], the “Escherichia coli ATCC 25922 MIC” value came to 0.5 µg/mL. Further, the “Acinetobacter baumannii DSM 30008 MIC” value in series [2] was 1 µg/mL. Besides, the “Escherichia coli 926415 MIC” value in the series on Escherichia coli 926415 was determined as 0.5 µg/mL. The “Pseudomonas aeruginosa ATCC 27853 MIC” value in series [3] came to 0.25 µg/mL. Besides, the “Klebsiella pneumoniae 968733 MIC” value in series [4] worked out at 4 µg/mL. In addition, the “Klebsiella pneumoniae SSI #3010 MIC” value in series [5] was found to be 1 µg/mL. For the same compound, in series [6], the “Acinetobacter baumannii 872842 MIC” value worked out at 0.25 µg/mL. In addition, the “Hemolysis at 100 μg/mL” value in series [7] is <1%.

For `CC(=O)N[C@@H](Cc1c[nH]c2ccccc12)C(=O)N[C@H]1CSSC[C@@H](C(=O)N[C@@H](CCCN)C(=O)N[C@H](CCN)C(=O)N[C@@H](CCN)C(=O)N[C@@H](CCN)C(=O)N[C@H]2CCNC(=O)[C@H]([C@@H](C)O)NC(=O)[C@H](CCN)NC(=O)[C@H](CCN)NC(=O)[C@H](CC(C)C)NC(=O)[C@@H](Cc3ccccc3)NC(=O)[C@H](CCN)NC2=O)NC(=O)[C@H](Cc2ccc(O)cc2)NC(=O)[C@H](CN)NC(=O)[C@H](Cc2ccccc2)NC(=O)[C@H](Cc2ccccc2)NC(=O)[C@H]2CCCN2C(=O)[C@H](CO)NC(=O)[C@H](C)NC(=O)[C@H](C(C)(C)C)NC1=O` [Ex. 137] (Ac-WC[Tle]AS[dP]FF[Dap]YC[Orn][dDab][Dab][Dab][Dab][Dab][dF]L[Dab][Dab]T; disulfide 2-11; lactam 16-C), in series [1], the “Escherichia coli ATCC 25922 MIC” value came to 0.25 µg/mL. The “Acinetobacter baumannii DSM 30008 MIC” value in series [2] was 0.5 µg/mL. Further, the “Escherichia coli 926415 MIC” value in the series with Escherichia coli 926415 was 0.5 µg/mL. Besides, the “Pseudomonas aeruginosa ATCC 27853 MIC” value in series [3] stood at 1 µg/mL. The “Klebsiella pneumoniae 968733 MIC” value in series [4] is 0.5 µg/mL. For the same compound, the “Klebsiella pneumoniae SSI #3010 MIC” value in series [5] is 0.5 µg/mL. For the same compound, the “Acinetobacter baumannii 872842 MIC” value in series [6] turned out to be 0.5 µg/mL. In addition, the “Hemolysis at 100 μg/mL” value in series [7] was determined as 4%.

In the case of `CC(=O)N[C@@H](Cc1c[nH]c2ccccc12)C(=O)N[C@H]1CSSC[C@@H](C(=O)N[C@@H](CCCN)C(=O)N[C@H](C(=O)N[C@@H](CCN)C(=O)N[C@@H](CCN)C(=O)N[C@H]2CCNC(=O)[C@H]([C@@H](C)O)NC(=O)[C@H](CCN)NC(=O)[C@H](CCN)NC(=O)[C@H](CC(C)C)NC(=O)[C@@H](Cc3ccccc3)NC(=O)[C@H](CCN)NC2=O)[C@@H](C)O)NC(=O)[C@H](Cc2ccc(O)cc2)NC(=O)[C@H](Cc2c[nH]cn2)NC(=O)[C@H](Cc2c[nH]c3ccccc23)NC(=O)[C@@H]2CCCN2C(=O)[C@H]2CCCN2C(=O)[C@H](CO)NC(=O)[C@H](C)NC(=O)[C@H](C(C)(C)C)NC1=O` [Ex. 138] (Ac-WC[Tle]AS[dP]PWHYC[Orn]T[Dab][Dab][Dab][Dab][dF]L[Dab][Dab]T; disulfide 2-11; lactam 16-C), in series [1], the “Escherichia coli ATCC 25922 MIC” value worked out at 0.25 µg/mL. In addition, the “Acinetobacter baumannii DSM 30008 MIC” value in series [2] came out at 0.5 µg/mL. The “Escherichia coli 926415 MIC” value in the series on Escherichia coli 926415 was found to be 4 µg/mL. The “Pseudomonas aeruginosa ATCC 27853 MIC” value in series [3] was 4 µg/mL. Besides, the “Klebsiella pneumoniae 968733 MIC” value in series [4] turned out to be 2 µg/mL. The “Klebsiella pneumoniae SSI #3010 MIC” value in series [5] worked out at 0.5 µg/mL. The “Acinetobacter baumannii 872842 MIC” value in series [6] was found to be 1 µg/mL. In series [7], the “Hemolysis at 100 μg/mL” value is 3%.
